Reference: EP0840781B1, “METHODS AND DEVICES FOR THE REMOVAL OF PSORALENS FROM BLOOD PRODUCTS” (Cerus Corporation, priority 1995, dated 1996)
Where two headings read alike, the source gives them in different places.

Experiments:
[1] = tested on: Pseudomonas; test: Bacterial inactivation by compound plus UVA, colony forming units; assay type: cell-based; conditions: 16 µM; 5 J/cm^2 irradiation; starting titer 6.5 logs
Protocol: In this example bacterial inactivation by the photoreactive nucleic acid binding compounds described herein was measured as a function of the ability of the bacteria to subsequently replicate. A gram negative bacteria was chosen as representative of the more difficult bacterial strains to inactivate.
The bacteria a strain of Pseudomonas, was inoculated into LB with a sterile loop and grown overnight in a shaker at 37°C. Based on the approximation that one OD at 610 nm is equivalent to 5 x 10^8 colony forming units (cfu)/mL, a 1:10 dilution of the culture was measured on a spectrophotometer. (manufactured by Shimatsu). The bacterial culture was added to a solution of 15% fetal bovine serum in DMEM to a final bacteria concentration of approximately 10^6/mL. An aliquot (0.8 mL) was transferred to a 1.5 mL snap-top polyethylene tube. An aliquot (0.004-0.040 mL) of the test compound stock solution prepared in water, ethanol or dimethylsulfoxide at 0.80-8.0 mM was added to the tube. Compounds were tested at a concentration of 16 µM. The tubes were placed in a light device as described in EXAMPLE I and irradiated with 1.3 J/cm^2, 1.2 J/cm^2, and finally 2.5 J/cm^2, for a total of 5 J/cm^2. 150 µL were removed for testing after each pulse period. Sterile 13 mL dilution tubes were prepared; each test compound required one tube with 0.4 mL of LB broth and four tubes containing 0.5 mL of LB broth. To make the dilutions, a 0.050 mL aliquot of the irradiated solution of phage and test compound was added to the first dilution tube of […] of media then 0.050 mL of this solution was added to the second tube of 0.5 mL medium (1:10). The second solution was then diluted serially (1:10) into the remaining tubes. 100 µL of the original sample and each dilution are plated separately onto LB agar plates and incubated at 37 °C overnight. The colony forming units were then counted the following morning and the titer of the phage remaining after phototreatment was calculated based on the dilution factors.
The following controls were run: the "bacteria only" in which bacteria was not treated with test compound and not irradiated (listed as "starting titer" in the tables below); the "UV only" in which the bacteria was irradiated in the absence of test compound. Dark controls were not performed here for reasons set forth in Example 12 above.

[2] = tested on: Salmonella typhimurium tester strains TA97a, TA98, TA100, TA102, TA1537 and TA1538; conditions: for revertant colonies, TA1538 +S9 (Table 18 (A)): background 123; for revertant colonies, TA1538 -S9 (Table 18 (A)): background 126; for revertant colonies, TA1537 -S9 (Table 18 (A)): background 20; for revertant colonies, TA1537 +S9 (Table 18 (A)): background 25
Outline: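 Ames pre-incubation test in S. typhimurium TA97a, TA98, TA1537, TA1538 (frameshift) and TA100, TA102 (base-substitution), with or without 10% Aroclor 1254-induced rat liver S-9. Test solutions at 0–500 µg/mL pre-incubated 20 min at 37 °C, plated in histidine/biotin top agar; revertant colonies counted after 44 h at 37 °C.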

[3] = two-fold or greater increase in revertants above background and dose dependent response

Cc1oc2c(C)c3oc(=O)cc(C)c3cc2c1CNCCCCN [Compound 6, 4'-(6-amino-2-aza)hexyl4,5',8-trimethylpsoralen]
log kill of bacteria (Pseudomonas) [1]: > 5.5 logs
revertant colonies, TA1538 +S9 ([2]; 5 µg/plate): 0
revertant colonies, TA1538 -S9 ([2]; 5 µg/plate): -5
revertant colonies, TA1538 +S9 (Table 18 (A)) ([2]; 5 µg/plate): 12
revertant colonies, TA1538 -S9 (Table 18 (A)) ([2]; 5 µg/plate): -32
revertant colonies, TA1537 +S9 ([2]; 10 µg/plate): -1
revertant colonies, TA1537 -S9 ([2]; 10 µg/plate): 141
revertant colonies, TA1538 +S9 ([2]; 10 µg/plate): 8
revertant colonies, TA1538 -S9 ([2]; 10 µg/plate): -2
revertant colonies, TA1537 -S9 (Table 18 (A)) ([2]; 10 µg/plate): 12
revertant colonies, TA1537 +S9 (Table 18 (A)) ([2]; 10 µg/plate): -5
revertant colonies, TA1538 +S9 (Table 18 (A)) ([2]; 10 µg/plate): -5
revertant colonies, TA1538 -S9 (Table 18 (A)) ([2]; 10 µg/plate): 3
revertant colonies, TA1537 +S9 ([2]; 50 µg/plate): 17
revertant colonies, TA1537 -S9 ([2]; 50 µg/plate): 2010
revertant colonies, TA1537 -S9 (Table 18 (A)) ([2]; 50 µg/plate): 12
revertant colonies, TA1537 +S9 (Table 18 (A)) ([2]; 50 µg/plate): 2
revertant colonies, TA1538 +S9 (Table 18 (A)) ([2]; 50 µg/plate): 24
revertant colonies, TA1538 -S9 (Table 18 (A)) ([2]; 50 µg/plate): 2
revertant colonies, TA1537 +S9 ([2]; 100 µg/plate): 35
revertant colonies, TA1537 -S9 ([2]; 100 µg/plate): 795
revertant colonies, TA1537 -S9 (Table 18 (A)) ([2]; 100 µg/plate): 22
revertant colonies, TA1537 +S9 (Table 18 (A)) ([2]; 100 µg/plate): 20
revertant colonies, TA1538 +S9 (Table 18 (A)) ([2]; 100 µg/plate): -2
revertant colonies, TA1538 -S9 (Table 18 (A)) ([2]; 100 µg/plate): -18
revertant colonies, TA1537 +S9 ([2]; 250 µg/plate): 99
revertant colonies, TA1537 -S9 ([2]; 250 µg/plate): 228
revertant colonies, TA1537 -S9 (Table 18 (A)) ([2]; 250 µg/plate): 12
revertant colonies, TA1537 +S9 (Table 18 (A)) ([2]; 250 µg/plate): 40
revertant colonies, TA1538 +S9 (Table 18 (A)) ([2]; 250 µg/plate): -38
revertant colonies, TA1537 +S9 ([2]; 500 µg/plate): 369
revertant colonies, TA1537 -S9 ([2]; 500 µg/plate): 43
revertant colonies, TA1537 -S9 (Table 18 (A)) ([2]; 500 µg/plate): 9
revertant colonies, TA1537 +S9 (Table 18 (A)) ([2]; 500 µg/plate): 52
frameshift mutagenicity (Ames, summary) [2, 3]: a frameshift response in TA98 in the presence of S9 at concentrations of 250µg/plate and above. It also showed a response at 50µg/plate in TA1537 in the presence of S9
base-substitution mutagenicity (Ames, summary) ([2]; two-fold or greater increase in revertants above background and dose dependent response, TA100, TA102): no base substitution mutagenicity

Cc1oc2c(C)c3oc(=O)cc(C)c3cc2c1COCCN [Compound 2, 4'-(4-amino-2-oxa)butyl-4,5',8-trimethylpsoralen]
log kill of bacteria (Pseudomonas) [1]: > 5.5 logs
revertant colonies, TA100 +S9 ([2]; 5 µg/plate): -18
revertant colonies, TA100 -S9 ([2]; 5 µg/plate): 103
revertant colonies, TA1538 +S9 ([2]; 5 µg/plate): 2
revertant colonies, TA1538 -S9 ([2]; 5 µg/plate): -8
revertant colonies, TA98 +S9 ([2]; 10 µg/plate): 24
revertant colonies, TA98 -S9 ([2]; 10 µg/plate): 28
revertant colonies, TA100 +S9 ([2]; 10 µg/plate): 1
revertant colonies, TA100 -S9 ([2]; 10 µg/plate): 46
revertant colonies, TA1537 +S9 ([2]; 10 µg/plate): 5
revertant colonies, TA1537 -S9 ([2]; 10 µg/plate): 36
revertant colonies, TA1538 +S9 ([2]; 10 µg/plate): 4
revertant colonies, TA1538 -S9 ([2]; 10 µg/plate): -13
revertant colonies, TA98 +S9 ([2]; 50 µg/plate): 35
revertant colonies, TA98 -S9 ([2]; 50 µg/plate): 52
revertant colonies, TA100 +S9 ([2]; 50 µg/plate): 115
revertant colonies, TA100 -S9 ([2]; 50 µg/plate): 182
revertant colonies, TA1537 +S9 ([2]; 50 µg/plate): 40
revertant colonies, TA1537 -S9 ([2]; 50 µg/plate): 282
revertant colonies, TA98 +S9 ([2]; 100 µg/plate): 53
revertant colonies, TA98 -S9 ([2]; 100 µg/plate): 39
revertant colonies, TA100 +S9 ([2]; 100 µg/plate): 96
revertant colonies, TA100 -S9 ([2]; 100 µg/plate): 121
revertant colonies, TA1537 +S9 ([2]; 100 µg/plate): 88
revertant colonies, TA1537 -S9 ([2]; 100 µg/plate): 258
revertant colonies, TA98 +S9 ([2]; 250 µg/plate): 69
revertant colonies, TA98 -S9 ([2]; 250 µg/plate): 29
revertant colonies, TA1537 +S9 ([2]; 250 µg/plate): 744
revertant colonies, TA1537 -S9 ([2]; 250 µg/plate): 176
revertant colonies, TA98 +S9 ([2]; 500 µg/plate): 63
revertant colonies, TA98 -S9 ([2]; 500 µg/plate): 6
revertant colonies, TA1537 +S9 ([2]; 500 µg/plate): 395
revertant colonies, TA1537 -S9 ([2]; 500 µg/plate): 114
frameshift mutagenicity (Ames, summary) [2, 3]: weak frameshift mutagenicity in the presence of S9 in TA98 and TA1537
